Test results reported in patent US20180110796A1, “COMPOSITIONS AND METHODS FOR THE TREATMENT OF HBV INFECTION” (Spring Bank Pharmaceuticals, Inc., priority 2015, published 2018).

How the values were obtained:
HBV = assay: Dose-ranging study in the HBV transgenic mouse model; type: in vivo; settings: once-daily oral 1 to 100 mg/kg/day for 14 days
[1] = Tolerability / drug safety of oral Formula (IIa) in chronic WHV carrier woodchucks (Example 2); type: in vivo, woodchuck (Marmota monax)
Description: All woodchucks used in this study were born in captivity and infected at 3 days of age with the cWHV7P2a inoculum containing WHV strain 7-11 (WHV7). cWHV7P2a has the same biological and virological characteristics as the parent cWHV7P2 inoculum as both were derived from cWHV7P1. Chronically infected animals were confirmed positive for serum WHV DNA and WHV surface antigen (WHsAg) and had undetectable antibodies against WHsAg (anti-WHs) at approximately 1 year post-infection. Absence of liver tumors in woodchucks with low gamma-glutamyl transferase (GGT) was confirmed by ultrasonography. Chronic WHV carrier woodchucks were assigned and stratified by gender, body weight, and by pretreatment serum markers (WHV DNA and WHsAg loads and serum GGT and sorbitol-dehydrogenase (SDH) levels) into two groups (n=5 each). Woodchucks were treated daily, orally with either a low (15 mg/kg) or high dose (30 mg/kg) of Formula (IIa) for 12 weeks. For select assays, blood and liver samples from five age-matched chronic WHV carrier woodchucks were included for comparison of basal expression levels of immune response genes in untreated animals with pretreated levels in Formula (IIa) treated animals.
Various measurements (body weight, body temperature, clinical chemistry, and hematology) were obtained weekly to monthly throughout the study to monitor drug safety. Serum and hepatic WHV parameters, host immune response parameters, and drug safety parameters were compared to the values at pretreatment and between both dose groups using unpaired Student's t-test with equal variance. P values of <0.05 were considered statistically significant.

[2] = test system: woodchuck hepatitis virus (WHV); assay: Antiviral efficacy of oral Formula (IIa) in chronic WHV carrier woodchucks (Example 2); type: in vivo, woodchuck (Marmota monax); settings: for weeks per approximately 1 log10 decline of serum WHV DNA: 12-week treatment; for average reduction of serum WHV DNA at the end of treatment: week 12, vs T0; for maximum reduction of hepatic WHV DNA RI from pretreatment level / maximum reduction of hepatic WHV RNA from pretreatment level / maximum reduction of hepatic WHV cccDNA from pretreatment level: after 12 weeks; for maximum reduction of serum WHsAg: after 12 weeks of treatment
[3] = test system: HBV-infected primary human hepatocytes; assay: In vitro studies using HBV-infected primary human hepatocytes; type: cell-based
Description: (§1) During viral infections, virus-derived nucleic acids (both DNA and RNA) are mainly sensed by certain pattern-recognition receptors such as RIG-1 and NOD2 which are located within the cytoplasm of cells, including hepatocytes. Binding of these viral sensor proteins to PAMP within the viral nucleic acids activates downstream signaling pathways which include the mitochondrial antiviral signaling protein (MAVS) leading to the induction of the IFN-regulatory factor-3 (IRF-3) and NF-κB dependent gene expression, and the subsequent production of type I and type III IFNs and inflammatory cytokines. Thus, sensing of viral nucleic acids is a crucial process to induce antiviral innate immune responses for limiting viral replication and for activation of adaptive immunity. For HBV it has been recently shown that RIG-1 sensing is mediated through recognition of the 5′-end ϵ region of the HBV pg RNA which leads to the induction of type III rather than type I IFNs in human primary hepatocytes in response to in vitro infection. In addition, activated RIG-1 is able to counter-act the interaction of the HBV polymerase protein with the HBV pgRNA in an IFN pathway independent manner resulting in suppressed viral replication. […]

HCV, Norovirus and RSV = assay: In vitro and in vivo studies against RNA viruses
Description: as §1

[4] = 15 and 30 mg/kg daily oral, 12 weeks
[5] = 15 and 30 mg/kg, all treated woodchucks

COC1[C@@H](OP(=O)(OC[C@H]2O[C@@H](n3cnc4c(N)ncnc43)C[C@H]2O)SCOC(=O)OC(C)C)[C@@H](CO)O[C@H]1n1ccc(=O)[nH]c1=O (some centres unmarked) [Formula (IIa)]
liver HBV DNA (HBV): significant reduction
mortality during the study [1, 4]: no mortality
tolerability (gross observations, body weights, body temperatures, hematology, clinical chemistry) [1, 4]: well-tolerated
serum levels of ALT and AST during and following treatment ([1]; both dose groups): essentially remained unchanged or declined slightly
serum SDH levels during administration ([1]; especially initial 4-8 weeks, more pronounced in the high dose group): trend towards elevated
seroconversion to anti-WHs antibodies and anti-WHe antibodies ([2]; 15 and 30 mg/kg, 12 weeks): not observed
hepatic expression scores of cytoplasmic WHcAg from pretreatment level [2, 5]: dose-dependent, transient reductions
scores of liver inflammation during the 12-week treatment period [2, 5]: unchanged or even reduced
delay in WHsAg rebound, high dose versus low dose ([2]; high dose 30 mg/kg): 1-7 week
delay in relapse of serum WHV DNA, high dose versus low dose ([2]; high dose 30 mg/kg): 2-4 weeks
time for serum WHV DNA to return to pretreatment level after withdrawal ([2]; high dose 30 mg/kg): 5-7 weeks
time for serum WHsAg to return to pretreatment level after the end of treatment ([2]; high dose 30 mg/kg): 6-8 weeks
weeks per approximately 1 log10 decline of serum WHV DNA ([2]; high dose 30 mg/kg daily oral): ~3 weeks
average reduction of serum WHV DNA at the end of treatment ([2]; high dose 30 mg/kg daily oral): 3.7 log10
maximum reduction of hepatic WHV DNA RI from pretreatment level ([2]; high dose 30 mg/kg): 38%
maximum reduction of hepatic WHV RNA from pretreatment level ([2]; high dose 30 mg/kg): 45%
maximum reduction of hepatic WHV cccDNA from pretreatment level ([2]; high dose 30 mg/kg): 25%
maximum reduction of serum WHsAg ([2]; high dose 30 mg/kg): 1.6 log10
time for serum WHV DNA to return to pretreatment level after withdrawal ([2]; low dose 15 mg/kg): 3-5 weeks
time for serum WHsAg to return to pretreatment level after completion of treatment ([2]; low dose 15 mg/kg): 1-5 weeks
weeks per approximately 1 log10 decline of serum WHV DNA ([2]; low dose 15 mg/kg daily oral): ~6 weeks
average reduction of serum WHV DNA at the end of treatment ([2]; low dose 15 mg/kg daily oral): 2.2 log10
maximum reduction of hepatic WHV DNA RI from pretreatment level ([2]; low dose 15 mg/kg): 19%
maximum reduction of hepatic WHV RNA from pretreatment level ([2]; low dose 15 mg/kg): 22%
maximum reduction of hepatic WHV cccDNA from pretreatment level ([2]; low dose 15 mg/kg): 16%
maximum reduction of serum WHsAg ([2]; low dose 15 mg/kg): 0.5 log10
HBV DNA levels [3]: significant reduction
secreted HBsAg and HBV e antigen (HBeAg) ([3]; similar to IFN-α treatment): declines
antiviral activity against RNA viruses including HCV, Norovirus and RSV (HCV, Norovirus and RSV): potent antiviral activity
